Experimental data as given in US6022696A, “Methods of identifying agonists or antagonists of angiotensin IV” (Washington State University Research Foundation, priority 1998, dated 2000).
Like-named read-outs stand apart in the source and are kept apart here. Non-standard residues stand in square brackets, D forms with d. Residues, ends and D or L forms follow the SMILES beside them. Nle = CCCC[C@H](N)C(=O)O

What was measured:
rat [1] = conditions: in vivo
rat [2] = assay: Systemic arterial blood pressure during renal artery infusion

SMILES | effect on arterial blood pressure (rat [1]) | effect on arterial blood pressure (rat [2])
CCCC[C@H](N)C(=O)N[C@@H](Cc1ccc(O)cc1)C(=O)N[C@H](C(=O)N[C@@H](Cc1cnc[nH]1)C(=O)N1CCC[C@H]1C(=O)N[C@@H](Cc1ccccc1)C(=O)O)[C@@H](C)CC [NleYIHPF] (H-[Nle]YIHPF-OH) | no effect on mean arterial pressure | 
CC[C@H](C)[C@H](NC(=O)[C@H](Cc1ccc(O)cc1)NC(=O)[C@@H](N)CCCCN)C(=O)N[C@@H](Cc1c[nH]cn1)C(=O)N1CCC[C@H]1C(=O)N[C@@H](Cc1ccccc1)C(=O)O [KYIHPF] (H-KYIHPF-OH) |  | no significant changes in arterial blood pressure
